# Measurements reported in PMC5786788, “Antimicrobial Octapeptin C4 Analogues Active against Cryptococcus Species” (Antimicrobial Agents and Chemotherapy, 2018).
# Where a SMILES comes first, the peptide text is derived from it. Bridges are numbered along the chain shown (N, C = ends). [ ]: non-standard residue; d: D form. The star is where a group is joined. Decanoyl(3R-OH) = CCCCCCC[C@@H](O)CC(=O)*; dDab = NCC[C@@H](N)C(=O)O; Dab = NCC[C@H](N)C(=O)O
# How the values were obtained:
# [1] = system: C. neoformans var. grubii; assay: organism not typed; conditions: no visible growth
# Experimental: The MICs of the yeast strains for PMB, PME, and octapeptin C4 and its derivatives were determined in accordance with CLSI M27-A2 guidelines using YNB (Becton Dickinson, USA) medium supplemented with 10 mM ammonium sulfate and 2% glucose, a final inoculum concentration of 1.5 × 10^3 to 2.0 × 10^3 cells/ml, and incubation at 35°C for 72 h ([39]). […] The MICs for PMB, PME, and octapeptin C4 for A. fumigatus were determined in accordance with the CLSI M38-A2 guidelines ([40]) using synthetic RPMI 1640 medium (with glutamine, without bicarbonate and with phenol red; Life Technologies, USA). The final inoculum concentration was 0.4 × 10^4 to 5 × 10^4 cells/ml, with incubation at 35°C for 48 h. […] All assays were completed in triplicate. Fluconazole was used as a positive control where the MIC was determined at both 50% growth (in accordance with CLSI M27-A2 guidelines) and when there was a “no visible growth” reading. […]
# [2] = system: C. neoformans var. gattii; assay: organism not typed; conditions: no visible growth
# Experimental: (§1) The MICs of the yeast strains for PMB, PME, and octapeptin C4 and its derivatives were determined in accordance with CLSI M27-A2 guidelines using YNB (Becton Dickinson, USA) medium supplemented with 10 mM ammonium sulfate and 2% glucose, a final inoculum concentration of 1.5 × 10^3 to 2.0 × 10^3 cells/ml, and incubation at 35°C for 72 h ([39]). […] The MICs for PMB, PME, and octapeptin C4 for A. fumigatus were determined in accordance with the CLSI M38-A2 guidelines ([40]) using synthetic RPMI 1640 medium (with glutamine, without bicarbonate and with phenol red; Life Technologies, USA). The final inoculum concentration was 0.4 × 10^4 to 5 × 10^4 cells/ml, with incubation at 35°C for 48 h. […] All assays were completed in triplicate. Fluconazole was used as a positive control where the MIC was determined at both 50% growth (in accordance with CLSI M27-A2 guidelines) and when there was a “no visible growth” reading.
# [3] = system: C. neoformans var. neoformans; assay: microbe, parasite or virus in culture; conditions: no visible growth
# Experimental: as §1
# C. gattii MMRL 2651 = conditions: 72 h
# Experimental: (§2) A broth microdilution assay was initially used to characterize the antifungal activity of the cyclic lipopeptides ([39], [40]). […] common pathogenic yeasts (C. albicans, C. glabrata, C. parapsilosis, C. neoformans, and C. gattii) and one pathogenic mold (A. fumigatus) were tested to determine the MIC for each compound (Table 1) using broth microdilution. […] The only structural difference between these molecules is the presence of a phenylalanine residue at position 6 in PMB; in PME a D-leucine is present at this location (Fig. 1).
# (§3) Fungal strains were stored in 15% glycerol at −80°C until use. The fungal strains used were H99 (C. neoformans type strain) ([55]), cap59Δ (an acapsular H99 mutant) ([56]), ATCC 90113 (C. neoformans), MMRL 2651 (C. gattii), ATCC 90028 (Candida albicans), ATCC 90030 (Candida glabrata), ATCC 22019 (Candida parapsilosis), and ATCC MYA 3626 (Aspergillus fumigatus). Yeasts were cultured in liquid (1% yeast extract, 2% Bacto peptone, 2% glucose) or solid (additional 2% agar) yeast extract-peptone-dextrose (YPD) media at 30°C and maintained at 4°C for no longer than 2 weeks. A. fumigatus was prepared on potato dextrose medium at 30°C and maintained at 4°C for no longer than 2 weeks.
# as §1
# C. neoformans H99 = system: C. neoformans H99
# Experimental: as §2, §3, §1
smiles,measurement,setting,value
"CCCCCCC[C@@H](O)CC(=O)N[C@H](CCN)C(=O)N[C@H]1CCNC(=O)[C@H](CC(C)C)NC(=O)[C@H](CCN)NC(=O)[C@H](CCN)NC(=O)[C@H](CC(C)C)NC(=O)[C@@H](Cc2ccccc2)NC(=O)[C@H](CCN)NC1=O [Octapeptin C4, octapeptin C4] ({Decanoyl(3R-OH)}-[dDab][Dab][Dab][dF]L[Dab][Dab]L; lactam 2-C (inferred); N-terminus assumed)",MIC,[1]; strain 486 (USA),3.13 µg/mL
same,MIC,"[1]; strain 488 (AIDS+, pre-HAART USA)",1.56 µg/mL
same,MIC,[1]; strain 490 (USA),1.56 µg/mL
same,MIC,[1]; strain 496 (USA),1.56 µg/mL
same,MIC,[1]; strain 500 (USA),1.56 µg/mL
same,MIC,[1]; strain 502 (ARR3+ USA),3.13 µg/mL
same,MIC,[1]; strain 505 (India),1.56 µg/mL
same,MIC,[1]; strain 507 (India),1.56 µg/mL
same,MIC,[1]; strain 512 (India),3.13 µg/mL
same,MIC,[1]; strain 516 (India),3.13 µg/mL
same,MIC,[1]; strain 518 (VNI India),1.56 µg/mL
same,MIC,[1]; strain 522 (India),3.13 µg/mL
same,MIC,[1]; strain 525 (India),1.56 µg/mL
same,MIC,[1]; strain 1188 (Japan lung),3.13 µg/mL
same,MIC,[1]; strain 1189 (USA BAL/HIV),1.56 µg/mL
same,MIC,[1]; strain 1194 (Italy),1.56 µg/mL
same,MIC,[1]; strain 1196 (Botswana CSF/AIDS),3.13 µg/mL
same,MIC,[1]; strain 1197 (Botswana CSF/AIDS),3.13 µg/mL
same,MIC,[1]; strain 1199 (Uganda CSF/HIV+ VNII),1.56 µg/mL
same,MIC,[1]; strain H99O (lab strain),1.56 µg/mL
same,MIC,[2]; strain ATCC 24066 (NIH 18),1.56 µg/mL
same,MIC,[2]; strain ATCC 32269,3.13 µg/mL
same,MIC,[2]; strain ATCC 32608 (NIH 191),0.78 µg/mL
same,MIC,[2]; strain ATCC 32609 (NIH444),3.13 µg/mL
same,MIC,[2]; strain ATCC 34878,3.13 µg/mL
same,MIC,[2]; strain ATCC 34882,6.25 µg/mL
same,MIC,[2]; strain B5748 (VGIV HIV India),3.13 µg/mL
same,MIC,[2]; strain R266 (Vancouver Island),1.56 µg/mL
same,MIC,[2]; strain R267 (Vancouver Island),12.50 µg/mL
same,MIC,[2]; strain R268 (Vancouver Island),3.13 µg/mL
same,MIC,[2]; strain R269 (Vancouver Island),3.13 µg/mL
same,MIC,[2]; strain R270 (Vancouver Island),3.13 µg/mL
same,MIC,[3]; strain WM 01.127 (USA),1.56 µg/mL
same,MIC,[3]; strain WM 02.141 (Russia),3.13 µg/mL
same,MIC,[3]; strain WM 02.142 (Russia),1.56 µg/mL
same,MIC,[3]; strain WM 02.143 (Russia),3.13 µg/mL
same,MIC,[3]; strain WM 02.37 (Canada),1.56 µg/mL
same,MIC,[3]; strain WM 02.52 (Canada),1.56 µg/mL
same,MIC,[3]; strain WM 04.168 (Chile),1.56 µg/mL
same,MIC,"[3]; strain WM 04.171 (Thailand, environmental)",1.56 µg/mL
same,MIC,"[3]; strain WM 05.467 (Brazil, environmental)",1.56 µg/mL
same,MIC,[3]; strain WM 05.515 (Peru),1.56 µg/mL
same,MIC,"[3]; strain WM 09.109 (Italy, environmental)",1.56 µg/mL
same,MIC,[3]; strain WM 09.112 (USA),1.56 µg/mL
same,MIC,[3]; strain WM 10.119 (Australia),1.56 µg/mL
same,MIC,[3]; strain WM 629 (Australia),3.13 µg/mL
same,MIC,[3]; strain WM 1706 (Argentina),1.56 µg/mL
same,MIC,[3]; strain WM 1740 (Chile),3.13 µg/mL
same,MIC,"[3]; strain WM 2207 (USA, environmental)",1.56 µg/mL
same,MIC,[3]; strain WM 2242 (USA),1.56 µg/mL
same,MIC,[3]; strain WM 2530 (USA),3.13 µg/mL
same,MIC C. gattii,C. gattii MMRL 2651,3.13 µg/mL
same,MICs against various Cryptococcus strains: MMRL 2651,C. gattii MMRL 2651,3.13 µg/mL
same,MIC C. neoformans H99,"C. neoformans H99; H99, 72 h",1.56 µg/mL
same,MICs against various Cryptococcus strains: H99,"C. neoformans H99; H99, 72 h",1.56 µg/mL
same,fold more potent than PMB,C. neoformans H99; by MIC against C. neoformans,~8 fold
same,fold more potent than PME,C. neoformans H99; by MIC against C. neoformans,> 60 fold
